Results published in patent publication US20230416248A1, “COMPOUNDS AND USES THEREOF” (Foghorn Therapeutics Inc., priority 2020, published 2023).
Where two headings read alike, the source gives them in different places.

Tests used:
BRG-1 = target: T1, BRG-1 (Homo sapiens, UniProt P51532); assay: ATPase catalytic activity of BRG-1, ADP-Glo in vitro biochemical assay; settings: 30 nM BRG-1, 400 μM ATP, read-out: BRG1 IC50
T1 construct: made in house; host or cells: High Five insect cells
How it was run: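 BRG-1 ATPase activity was measured in vitro by ADP-Glo. After the reaction, ADP-Glo Reagent depleted unconsumed ATP (40 min, room temperature), then Kinase Detection Reagent converted product ADP to ATP (60 min, room temperature), and luciferase luminescence was read.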

BRM = target: T2, BRM (Homo sapiens, UniProt P51531); assay: ATPase catalytic activity of BRM, ADP-Glo in vitro biochemical assay; settings: for IC50: 30 nM BRM, 400 μM ATP; for Ratio* (BRG1 IC50 (μM) divided by BRM IC50 (μM)): selectivity ratio BRG1 IC50 / BRM IC50
T2 construct: made in house; host or cells: High Five insect cells
How it was run: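 Recombinant BRM (30 nM) hydrolysed 400 μM ATP with 20 nM salmon sperm DNA in pH 8 Tris buffer containing 20 mM MgCl2, 50 mM NaCl, 0.1% Tween-20 and 1 mM DTT, 1 h at room temperature. ADP formed was quantified by ADP-Glo luminescence.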

[1] = ATPase catalytic activity, ADP-Glo

T2 sequence (P51531 whole entry): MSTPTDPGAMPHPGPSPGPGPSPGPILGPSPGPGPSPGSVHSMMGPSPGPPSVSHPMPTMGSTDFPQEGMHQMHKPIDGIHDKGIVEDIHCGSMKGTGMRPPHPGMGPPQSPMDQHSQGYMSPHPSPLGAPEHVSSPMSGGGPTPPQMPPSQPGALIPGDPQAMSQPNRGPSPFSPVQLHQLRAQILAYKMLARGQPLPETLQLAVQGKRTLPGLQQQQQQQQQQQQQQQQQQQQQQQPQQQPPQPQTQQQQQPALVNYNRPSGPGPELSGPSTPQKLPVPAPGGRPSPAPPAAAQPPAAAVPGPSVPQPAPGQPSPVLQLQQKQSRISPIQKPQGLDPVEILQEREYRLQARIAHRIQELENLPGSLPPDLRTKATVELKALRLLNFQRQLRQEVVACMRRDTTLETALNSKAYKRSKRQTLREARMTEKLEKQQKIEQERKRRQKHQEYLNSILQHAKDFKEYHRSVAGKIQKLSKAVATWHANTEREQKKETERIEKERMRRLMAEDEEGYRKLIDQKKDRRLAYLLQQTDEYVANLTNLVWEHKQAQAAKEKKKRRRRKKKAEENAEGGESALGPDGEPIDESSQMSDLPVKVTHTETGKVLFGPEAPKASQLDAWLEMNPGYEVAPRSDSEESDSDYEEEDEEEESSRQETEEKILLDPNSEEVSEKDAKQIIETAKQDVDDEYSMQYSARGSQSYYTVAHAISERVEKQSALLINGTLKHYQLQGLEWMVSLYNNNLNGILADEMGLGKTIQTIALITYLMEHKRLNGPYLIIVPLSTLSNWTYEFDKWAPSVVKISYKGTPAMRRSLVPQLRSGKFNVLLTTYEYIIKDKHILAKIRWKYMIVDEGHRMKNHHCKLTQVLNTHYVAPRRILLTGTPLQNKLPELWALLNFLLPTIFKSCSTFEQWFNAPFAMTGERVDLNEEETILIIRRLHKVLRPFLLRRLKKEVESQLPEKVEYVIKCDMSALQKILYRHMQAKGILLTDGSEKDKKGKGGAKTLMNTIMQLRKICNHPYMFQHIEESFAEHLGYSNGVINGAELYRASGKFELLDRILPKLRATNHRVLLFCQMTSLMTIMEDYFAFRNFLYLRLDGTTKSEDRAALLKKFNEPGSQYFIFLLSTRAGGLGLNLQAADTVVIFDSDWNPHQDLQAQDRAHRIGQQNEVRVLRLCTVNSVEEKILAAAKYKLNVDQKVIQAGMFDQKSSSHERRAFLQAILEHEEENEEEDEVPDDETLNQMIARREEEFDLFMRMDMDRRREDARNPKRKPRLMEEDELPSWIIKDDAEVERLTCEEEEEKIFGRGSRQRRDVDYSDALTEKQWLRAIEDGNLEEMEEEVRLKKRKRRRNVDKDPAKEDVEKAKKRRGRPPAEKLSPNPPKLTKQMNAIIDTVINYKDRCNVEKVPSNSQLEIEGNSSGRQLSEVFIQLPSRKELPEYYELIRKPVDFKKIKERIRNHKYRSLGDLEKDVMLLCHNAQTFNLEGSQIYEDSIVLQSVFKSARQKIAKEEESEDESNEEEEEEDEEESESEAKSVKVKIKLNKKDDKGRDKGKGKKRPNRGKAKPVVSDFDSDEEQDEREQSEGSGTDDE
T1 sequence (P51532 whole entry): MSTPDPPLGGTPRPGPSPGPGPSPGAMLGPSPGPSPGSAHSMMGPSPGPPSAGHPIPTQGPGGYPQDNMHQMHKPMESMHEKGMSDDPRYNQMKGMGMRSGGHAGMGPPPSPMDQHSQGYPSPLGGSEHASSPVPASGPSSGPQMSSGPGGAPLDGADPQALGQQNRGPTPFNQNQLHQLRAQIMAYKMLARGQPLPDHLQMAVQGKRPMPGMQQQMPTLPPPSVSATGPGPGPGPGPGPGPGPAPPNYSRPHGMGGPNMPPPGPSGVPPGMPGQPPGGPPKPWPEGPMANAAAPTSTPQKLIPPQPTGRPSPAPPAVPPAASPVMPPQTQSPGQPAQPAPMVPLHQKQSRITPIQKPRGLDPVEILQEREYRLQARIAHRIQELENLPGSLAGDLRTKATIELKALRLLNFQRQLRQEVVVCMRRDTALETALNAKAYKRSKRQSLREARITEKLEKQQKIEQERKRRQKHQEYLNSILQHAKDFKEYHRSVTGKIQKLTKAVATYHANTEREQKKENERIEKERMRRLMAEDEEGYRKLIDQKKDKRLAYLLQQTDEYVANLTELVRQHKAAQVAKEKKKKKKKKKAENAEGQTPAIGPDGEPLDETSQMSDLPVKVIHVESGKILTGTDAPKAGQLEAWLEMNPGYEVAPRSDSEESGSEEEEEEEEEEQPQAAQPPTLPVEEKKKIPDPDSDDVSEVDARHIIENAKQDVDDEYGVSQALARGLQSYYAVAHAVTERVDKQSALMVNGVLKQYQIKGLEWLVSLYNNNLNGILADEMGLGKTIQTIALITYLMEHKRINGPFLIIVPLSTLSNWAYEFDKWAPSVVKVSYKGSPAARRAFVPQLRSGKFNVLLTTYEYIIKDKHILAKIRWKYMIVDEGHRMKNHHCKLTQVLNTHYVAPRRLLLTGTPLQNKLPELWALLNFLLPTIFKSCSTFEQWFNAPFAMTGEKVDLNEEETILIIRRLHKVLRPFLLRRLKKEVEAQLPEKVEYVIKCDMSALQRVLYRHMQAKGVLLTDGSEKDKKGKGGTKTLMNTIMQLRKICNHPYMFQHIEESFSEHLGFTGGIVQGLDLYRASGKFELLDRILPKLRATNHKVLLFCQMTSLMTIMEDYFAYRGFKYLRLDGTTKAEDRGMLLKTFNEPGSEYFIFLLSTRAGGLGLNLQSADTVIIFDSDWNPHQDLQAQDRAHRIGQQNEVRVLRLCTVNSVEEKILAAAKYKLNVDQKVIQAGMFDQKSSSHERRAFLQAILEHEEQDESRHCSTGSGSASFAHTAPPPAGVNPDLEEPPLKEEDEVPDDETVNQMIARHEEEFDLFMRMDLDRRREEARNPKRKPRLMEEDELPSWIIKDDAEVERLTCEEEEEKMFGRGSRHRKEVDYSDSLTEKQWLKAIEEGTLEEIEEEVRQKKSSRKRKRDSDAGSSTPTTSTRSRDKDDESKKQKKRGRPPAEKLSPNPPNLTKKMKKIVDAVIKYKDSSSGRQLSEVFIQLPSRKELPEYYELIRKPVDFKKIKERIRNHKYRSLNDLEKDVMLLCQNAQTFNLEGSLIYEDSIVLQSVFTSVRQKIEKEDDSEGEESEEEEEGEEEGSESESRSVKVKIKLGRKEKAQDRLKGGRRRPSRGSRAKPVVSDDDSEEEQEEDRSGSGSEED

IC50 (BRG-1; [1]) [nM]	IC50 (BRM; [1]) [nM]	Ratio* (BRM; ratio of BRG1 IC50 to BRM IC50)	IC50 (BRG-1; ADP-Glo ATPase assay) [nM]	IC50 (BRM; ADP-Glo ATPase assay) [nM]	Ratio* (BRG1 IC50 (μM) divided by BRM IC50 (μM)) (BRM)	Ratio* (BRM; ratio BRG1 IC50 / BRM IC50)	Structure (SMILES)
268	24.2	11.06	–	–	–	–	O=C(NCc1cc2nc(N3CCCc4cc(N5CCC5)cnc43)ccc2cn1)c1ccc2c(c1)S(=O)(=O)CCOC2 [Compound 666]
42.6	4.2	10.13	–	–	–	–	Cc1ccc2c(c1)OCCN2c1ccc2cnc(CNC(=O)c3ccc4c(c3)S(=O)(=O)CCOC4)cc2n1 [Compound 420]
158	15.8	9.98	–	–	–	–	COc1cc2c(nc1C)N(c1ccc3cnc(CNC(=O)c4ccc5c(c4)S(=O)(=O)CCOC5)cc3n1)CCC2 [Compound 602]
–	–	–	1520	147	–	–	O=C(NCc1cc2nc(N3CCc4ccccc43)ccc2cn1)c1ccc2c(c1)S(=O)(=O)CCOC2 [Compound 50]
288	24.3	11.87	–	–	–	–	COc1cc(C(F)(F)F)ccc1-c1ccc2cnc(CNC(=O)c3ccc4c(c3)S(=O)(=O)CCOC4)cc2n1 [Compound 335]
291	19.2	15.15	–	–	–	–	O=C(NCc1cc2nc(-c3ccc(Cl)c(OC(F)F)n3)ccc2cn1)c1ccc2c(c1)S(=O)(=O)CCOC2 [Compound 327]
–	–	–	590	23.5	25.10	–	O=C(NCc1cc2nc(-c3cccc(C4CC4)n3)ccc2cn1)c1ccc2c(c1)S(=O)(=O)CCOC2 [Compound 264]
63.9	8.7	7.36	–	–	–	–	C[C@@H]1CN(c2cccc(-c3ccc4cnc(CNC(=O)c5cc(C(F)F)c6c(c5)S(=O)(=O)CCOC6)cc4n3)n2)C[C@H](C)O1 [Compound 355]
–	–	–	1320	84.9	15.55	–	CCS(=O)(=O)c1cc(C(=O)NCc2cc3nc(-c4cncc(C5CC5)n4)ccc3cn2)ccc1C [Compound 275]
–	–	–	827	59.3	13.95	–	O=C(NCc1cc2nc(-c3cccc(OCC(F)F)n3)ccc2cn1)c1ccc2c(c1)S(=O)(=O)CCOC2 [Compound 167]
–	–	–	594	24.2	24.53	–	O=C(NCc1cc2nc(-c3cncc(C4CC4)n3)ccc2cn1)c1cc(F)c2c(c1)S(=O)(=O)CCOC2 [Compound 287]
72.4	6.6	10.88	–	–	–	–	CN(C[C@H]1CCO1)c1cccc(-c2ccc3cnc(CNC(=O)c4ccc5c(c4)S(=O)(=O)CCOC5)cc3n2)n1 [Compound 383]
494	20.6	23.93	–	–	–	–	C[C@@H]1CN(c2cccc(-c3ccc4cnc(CNC(=O)c5ccc6c(c5)S(=O)(=O)CCCN6C)cc4n3)n2)C[C@H](C)O1 [Compound 415]
80.4	9.4	8.53	–	–	–	–	C[C@@]1(F)CCCN(c2cccc(-c3ccc4cnc(CNC(=O)c5ccc6c(c5)S(=O)(=O)CCOC6)cc4n3)n2)C1 [Compound 318]
–	–	–	478	24	–	19.92	O=C(NCc1cc2nc(N3CCN(CC(F)F)c4cccnc43)ccc2cn1)c1ccc2c(c1)S(=O)(=O)CCOC2 [Compound 742]
–	–	–	94.1	8	11.83	–	COCCN(C)c1cccc(-c2ccc3cnc(CNC(=O)c4cc(F)c5c(c4)S(=O)(=O)CCOC5)cc3n2)n1 [Compound 100]
–	–	–	204	12.5	16.30	–	C[C@@H]1CN(c2cccc(-c3ccc4cnc(CNC(=O)c5cnc(C(F)F)c(S(C)(=O)=O)c5)cc4n3)n2)C[C@H](C)O1 [Compound 132]
–	–	–	422	44.5	9.47	–	C[C@@H]1CN(c2cncc(-c3ccc4cnc(CNC(=O)c5ccc(Cl)c(S(C)(=O)=O)c5)cc4n3)n2)C[C@H](C)O1 [Compound 182]
–	–	–	192	19.1	–	10.04	O=C(NCc1cc2nc(N3CCOc4cc(N5CCCC5)cnc43)ccc2cn1)c1ccc2c(c1)S(=O)(=O)CCOC2 [Compound 754]
